# Measured values: ChEMBL document CHEMBL1255274, “Microdialysis study of imipenem distribution in the peritoneal fluid of rats with experimental acute pancreatitis” (Antimicrob Agents Chemother, 2008)
# Legend:
# Type in all cases: ADME, organism-based
# Set-up in all cases: dose 30 mg/kg, route intravenous
# [1] = Cmax in pancreatitis Sprague-Dawley rat blood at 30 mg/kg, iv after 30 mins
# [2] = Cmax in pancreatitis Sprague-Dawley rat peritoneal fluid at 30 mg/kg, iv after 30 mins
# [3] = Tmax in pancreatitis Sprague-Dawley rat blood at 30 mg/kg, iv after 30 mins
# [4] = Tmax in pancreatitis Sprague-Dawley rat peritoneal fluid at 30 mg/kg, iv after 30 mins
# [5] = Clearance in pancreatitis Sprague-Dawley rat blood at 30 mg/kg, iv after 30 mins
# [6] = Half life in pancreatitis Sprague-Dawley rat blood at 30 mg/kg, iv after 30 mins
# [7] = Half life pancreatitis Sprague-Dawley rat peritoneal fluid at 30 mg/kg, iv after 30 mins
# [8] = Selectivity ratio of AUC in pancreatitis Sprague-Dawley rat peritoneal fluid to AUC in pancreatitis Sprague-Dawley rat blood at 30 mg/kg, iv after 30 mins; details: read-out: Ratio AUC
compound,measurement,setting,value
C[C@@H](O)[C@H]1C(=O)N2C(C(=O)O)=C(SCCN=CN)C[C@H]12 [IMIPENEM ANHYDROUS],Cmax,[1],53.9 µg/mL
same,Cmax,[2],51.8 µg/mL
same,Tmax,[3],35 min
same,Tmax,[4],36.7 min
same,clearance,[5],17 mL/min/kg
same,half-life,[6],17.3 min
same,half-life,[7],17.6 min
same,Kp at 0.5 h,[8],1.08
